From patent US10174016B2 (BAYER AKTIENGESELLSCHAFT, priority 2014, dated 2019)
pIC50: −log10 of the molar value. Where two headings read alike, the source gives them in different places.

What was measured:
human P2X3 receptor = human P2X3 receptor (Homo sapiens (Human), UniProt P56373); test: Intracellular calcium measurement (FLIPR, Fluo-4) of antagonist activity at human P2X3 receptors; format: cell-based; settings: read-out: hP2X3 IC50
How it was run: (§1)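 Antagonism quantified from peak calcium fluorescence (Fluo-4, FLIPR, 90 sec read) evoked by EC80 α,β-Me-ATP, after a 30 min, 37° C. compound pretreatment in 1% DMSO. Human P2X3- or P2X2/3-expressing cells used; triplicate means fitted for IC50, percent maximal inhibition and Hill coefficient.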

human P2X2/3 receptor = human P2X2/3 receptor (Homo sapiens (Human), UniProt P56373+Q9UBL9); test: Intracellular calcium measurement (FLIPR, Fluo-4) of antagonist activity at human P2X2/3 receptors; format: cell-based; settings: human P2X2/3, FLIPR calcium assay, agonist α,β-Me-ATP; read-out: hP2X2/3 IC50
How it was run: as §1

[1] = human P2X3, FLIPR calcium assay, agonist α,β-Me-ATP

Chain of human P2X3 receptor (P56373 whole entry): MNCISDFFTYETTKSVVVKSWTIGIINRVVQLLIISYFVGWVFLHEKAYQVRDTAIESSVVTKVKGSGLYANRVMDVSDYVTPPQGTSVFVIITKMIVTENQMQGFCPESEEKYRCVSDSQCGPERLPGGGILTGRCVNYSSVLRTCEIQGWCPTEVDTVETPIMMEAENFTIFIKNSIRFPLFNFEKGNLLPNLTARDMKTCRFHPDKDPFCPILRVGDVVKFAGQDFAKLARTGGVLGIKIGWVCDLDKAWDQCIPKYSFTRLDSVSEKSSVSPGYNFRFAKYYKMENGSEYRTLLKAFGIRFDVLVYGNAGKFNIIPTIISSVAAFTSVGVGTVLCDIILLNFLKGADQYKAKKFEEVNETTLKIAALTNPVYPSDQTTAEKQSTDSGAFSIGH
Chain of human P2X2/3 receptor (P56373 whole entry): as above
Chain of human P2X2/3 receptor (Q9UBL9 whole entry): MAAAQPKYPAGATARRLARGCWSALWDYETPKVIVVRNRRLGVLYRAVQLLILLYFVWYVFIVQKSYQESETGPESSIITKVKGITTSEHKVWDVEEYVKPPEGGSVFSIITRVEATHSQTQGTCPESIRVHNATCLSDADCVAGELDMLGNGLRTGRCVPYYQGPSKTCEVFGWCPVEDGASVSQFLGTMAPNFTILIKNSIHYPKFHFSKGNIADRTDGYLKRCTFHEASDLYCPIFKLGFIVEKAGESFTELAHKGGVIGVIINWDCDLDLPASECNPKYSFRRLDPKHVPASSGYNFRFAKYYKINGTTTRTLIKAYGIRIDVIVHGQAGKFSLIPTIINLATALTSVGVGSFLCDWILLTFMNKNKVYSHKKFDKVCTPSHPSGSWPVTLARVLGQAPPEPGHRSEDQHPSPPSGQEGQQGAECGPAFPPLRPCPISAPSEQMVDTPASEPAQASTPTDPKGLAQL

Row | Compound | pIC50 (human P2X3 receptor) | pIC50 (human P2X2/3 receptor) | pIC50 (human P2X3 receptor; [1])
1 | Cc1cnc(-c2cc(OC[C@@H]3COCC(=O)N3)cc(C(=O)N[C@H](C)c3cnc(C(F)(F)F)nc3)c2)s1 [Example 403, 3-(5-methyl-1,3-thiazol-2-yl)-5-{[(3S)-5-oxomorpholin-3-yl]methoxy}-N-{(1R)-1-[2-(trifluoromethyl)pyrimidin-5-yl]ethyl}benzamide] | 7.25 | 5.68 | 
2 | Cc1cnc(-c2cc(OCC34CC(CO3)N(C(=O)OC(C)(C)C)C4)cc(C(=O)N[C@H](C)c3cnc(C(F)(F)F)nc3)c2)s1 (stereo partly drawn) [Example 404, tert-butyl 1-{[3-(5-methyl-1,3-thiazol-2-yl)-5-({(1R)-1-[2-(trifluoromethyl)pyrimidin-5-yl]ethyl}carbamoyl)phenoxy]methyl}-2-oxa-5-azabicyclo[2.2.1]heptane-5-carboxylate] |  | 6.27 | 7.36
3 | Cc1cnc(-c2cc(OCC34CC(CO3)N(C(C)C)C4)cc(C(=O)N[C@H](C)c3cnc(C(F)(F)F)nc3)c2)s1 (stereo partly drawn) [Example 405, 3-[(5-isopropyl-2-oxa-5-azabicyclo[2.2.1]hept-1-yl)methoxy]-5-(5-methyl-1,3-thiazol-2-yl)-N-{(1R)-1-[2-(trifluoromethyl)pyrimidin-5-yl]ethyl}benzamide] |  | 5.81 | 7.77
4 | Cc1cnc(-c2cc(OCC34CC(CO3)N(C)C4)cc(C(=O)N[C@H](C)c3cnc(C(F)(F)F)nc3)c2)s1 (stereo partly drawn) [Example 406, 3-[(5-methyl-2-oxa-5-azabicyclo[2.2.1]hept-1-yl)methoxy]-5-(5-methyl-1,3-thiazol-2-yl)-N-{(1R)-1-[2-(trifluoromethyl)pyrimidin-5-yl]ethyl}benzamide] |  | 5.69 | 7.59
5 | CCCN1CC2(COc3cc(C(=O)N[C@H](C)c4cnc(C(F)(F)F)nc4)cc(-c4ncc(C)s4)c3)CC1CO2 (stereo partly drawn) [Example 408, 3-(5-methyl-1,3-thiazol-2-yl)-5-[(5-propyl-2-oxa-5-azabicyclo[2.2.1]hept-1-yl)methoxy]-N-{(1R)-1-[2-(trifluoromethyl)pyrimidin-5-yl]ethyl}benzamide] |  | 5.77 | 7.49
6 | COC(=O)N1CC2(COc3cc(C(=O)N[C@H](C)c4cnc(C(F)(F)F)nc4)cc(-c4ncc(C)s4)c3)CC1CO2 (stereo partly drawn) [Example 409, Methyl 1-{[3-(5-methyl-1,3-thiazol-2-yl)-5-({(1R)-1-[2-(trifluoromethyl)pyrimidin-5-yl]ethyl}carbamoyl)phenoxy]methyl}-2-oxa-5-azabicyclo[2.2.1]heptane-5-carboxylate] |  | 6.01 | 7.66
7 | CCOC(=O)N1CC2(COc3cc(C(=O)N[C@H](C)c4cnc(C(F)(F)F)nc4)cc(-c4ncc(C)s4)c3)CC1CO2 (stereo partly drawn) [Example 410, Ethyl 1-{[3-(5-methyl-1,3-thiazol-2-yl)-5-({(1R)-1-[2-(trifluoromethyl)pyrimidin-5-yl]ethyl}carbamoyl)phenoxy]methyl}-2-oxa-5-azabicyclo[2.2.1]heptane-5-carboxylate] |  | 6.04 | 7.66
8 | CCN1CCO[C@H](COc2cc(C(=O)N[C@H](C)c3cnc(C(F)(F)F)nc3)cc(-c3ncc(C)s3)c2)C1 [Example 411, 3-{[(2S)-4-ethylmorpholin-2-yl]methoxy}-5-(5-methyl-1,3-thiazol-2-yl)-N-{(1R)-1-[2-(trifluoromethyl)pyrimidin-5-yl]ethyl}benzamide] |  | 6.16 | 7.70
9 | Cc1cnc(-c2cc(OC[C@H]3CNCCO3)cc(C(=O)N[C@@H](C)c3cnc(C(F)(F)F)nc3)c2)s1 [Example 413, 3-(5-methyl-1,3-thiazol-2-yl)-5-[(2R)-morpholin-2-ylmethoxy]-N-{(1S)-1-[2-(trifluoromethyl)pyrimidin-5-yl]ethyl}benzamide] |  | ≤ 5.00 | 6.22
10 | CCc1cnc(-c2cc(OC[C@@H]3CNCCO3)cc(C(=O)N[C@H](C)c3ccc(C(F)(F)F)nn3)c2)s1 [Example 414, 3-(5-ethyl-1,3-thiazol-2-yl)-5-[(2S)-morpholin-2-ylmethoxy]-N-{(1R)-1-[6-(trifluoromethyl)pyridazin-3-yl]ethyl}benzamide] |  | 5.64 | 7.54
11 | CCc1cnc(-c2cc(OC[C@H]3CNCCO3)cc(C(=O)N[C@H](C)c3ccc(C(F)(F)F)nn3)c2)s1 [Example 415, 3-(5-ethyl-1,3-thiazol-2-yl)-5-[(2R)-morpholin-2-ylmethoxy]-N-{(1R)-1-[6-(trifluoromethyl)pyridazin-3-yl]ethyl}benzamide] |  | 5.66 | 8.00
12 | Cc1cnc(-c2cc(OC[C@H]3CN(C)CCO3)cc(C(=O)N[C@@H](C)c3cnc(C(F)(F)F)nc3)c2)s1 [Example 416, 3-{[(2R)-4-methylmorpholin-2-yl]methoxy}-5-(5-methyl-1,3-thiazol-2-yl)-N-{(1S)-1-[2-(trifluoromethyl)pyrimidin-5-yl]ethyl}benzamide] | 6.64 | ≤ 5.00 | 
13 | Cc1cnc(-c2cc(OC[C@@H]3CN(C)CCO3)cc(C(=O)N[C@@H](C)c3cnc(C(F)(F)F)nc3)c2)s1 [Example 417, 3-{[(2S)-4-methylmorpholin-2-yl]methoxy}-5-(5-methyl-1,3-thiazol-2-yl)-N-{(1S)-1-[2-(trifluoromethyl)pyrimidin-5-yl]ethyl}benzamide] | 6.36 | ≤ 5.00 | 
14 | CCc1cnc(-c2cc(OC[C@@H]3CN(C)CCO3)cc(C(=O)N[C@H](C)c3ccc(C(F)(F)F)nn3)c2)s1 [Example 418, 3-(5-Ethyl-1,3-thiazol-2-yl)-5-{[(2S)-4-methylmorpholin-2-yl]methoxy}-N-{(1R)-1-[6-(trifluoromethyl)pyridazin-3-yl]ethyl}benzamide] |  | 5.81 | 7.64
